The results in this text go back to patent publication US4558064A, “2-Azasfiro[4.(3+N)]-3-carboxylic acid derivatives, a process for their preparation, agents containing these derivatives and their use” (Hoechst Aktiengesellschaft, priority 1982, dated 1985).

For this assay, the system named is pressor response induced by angiotensin I. Description: suppression of the pressor response in the rat induced by 310 ng of angiotensin I. The assay is classed as in vivo. Conditions: 30 minutes after administration, 310 ng angiotensin I. As for the experimental part: In animal experiments, the following effects, for example, were obtained: the suppression of the pressor response in the rat induced by 310 ng of angiotensin I was measured.
(a) i.v. administration (30 minutes after administration)
(b) i.d. administration (30 minutes after administration)

Where [1] appears, read: i.v. administration, dose 100 μg/kg.

Regarding `CC(NC(CCc1ccccc1)C(=O)O)C(=O)N1CC2(CCCCCC2)CC1C(=O)O` (stereo not drawn), the “% inhibition of the pressor response induced by angiotensin I” value (“% inhibition” for short) under setting [1] is 95%.
In the case of `CCOC(=O)C(CCc1ccccc1)NC(C)C(=O)N1CC2(CCCCC2)CC1C(=O)O` (stereo not drawn), the “% inhibition” value is, setting by setting: (i.d. administration, dose 0.1 mg (so in the source)) 60-70%; under setting [1], 95%.
Regarding `CCOC(=O)C(CC(=O)c1ccccc1)NC(C)C(=O)N1CC2(CCCCC2)CC1C(=O)O` (stereo not drawn) [N-(1-Carboethoxy-3-oxo-3-phenylpropyl)alanyl-2-azaspiro[4.5]decane-3-carboxylic acid], under setting [1], the “% inhibition” value amounted to 95%.
`CCOC(=O)C(CCc1ccccc1)NC(C)C(=O)N1CC2(CCCC2)CC1C(=O)O` (stereo not drawn): the “% inhibition” value is on record as 85-95% (i.d. administration, dose 1 mg/kg) and 95% under setting [1].
